Where two headings read alike, the source gives them in different places.
Key:
[1] = test system: PP2A-holoenzymes; test: PP2A activity assay (malachite green), PP2A-holoenzymes immunopurified from HeLa cell lysates; assay type: biochemical; settings: 10 nM okadaic acid, 1 hour
Experimental: (§1) Either purified PP2Ac (upstate), cell lysates or PP2A-holoenzymes, which were purified by immunoprecipitation using a PP2A-A-subunit antibody (Millipore), were incubated with or without 10 mM metformin or 10 nM okadaic acid for 1 hour. Afterwards PP2A phosphatase activity was determined using a malachite green assay kit (upstate) following the manufacturer's instructions.

[2] = test system: tau; assay type: cell-based, mouse; settings: for de-phosphorylation of tau at PP2A sensitive sites: increasing concentration of phenformin over 16 h or 1 h
Experimental: (§2) Primary cortical neurons were isolated from brain of wt or transgenic (Mapt^tm1(EGFP)klt Tg(MAPT)8cPdav/J; Jackson Laboratory) embryos at day 14.5. Cortices were collected in DMEM (Lonza) and cells were dissociated by incubation with Trypsin/EDTA for 6.5 min at 37° C. Cells were then diluted in neurobasal medium (Gibco-BRL) containing B27 supplement (Gibco BRL). Cells were plated at a density of 4.0×10^5 onto 0.2 mg/ml poly-D-lysin (Sigma) and 2 μg/ml Laminin (Sigma) coated 12 well plates. Neurons were incubated at 37° C. with 8% CO2. One hour after seeding a complete change of medium was performed. Later on, each 96 hours half volumes of the medium were replaced by fresh medium. After 7 days in culture neurons were treated.
(§3) Cells were incubated with the respective substances as follows: Metformin (Sigma) at final concentrations up to 2.5 mM for 1 to >24 hours, okadaic acid (Sigma) at final concentrations from 1 nM to 10 nM for 4 h, Fostricien (Sigma) at final concentration of 1 μM for 4 h and AICAR (cell signalling) at final concentration of 5 mM for 0.5-16 h. For cell treatment without insulin, medium containing B27+insulin supplement was replaced with medium containing B27-supplement without insulin 24 h before treatment. 3 groups of 2 mice were treated with or without 5 mg/l metformin in the drinking water.
(§4) Cell pellets were homogenized in Magic-Mix (48% UREA, 15 mM Tris-HCL pH 7.5, 8.7% Glycerin, 1% SDS, 0.004% Bromphenolblue, 143 mM Mercaptoethanol), sonicated and boiled for 5 min at 95° C. Proteins were resolved on 8 or 10% SDS gels and blotted onto PVDF-membranes (Roche). Antibodies used in this study were purchased from the following companies: Tau-5 (Biosource), anti-human PHF pSer202 (Thermo scientific), Tau pSer356 (Biosource), Tau pSer262 (Biosource), Tau pSer396 (Sigma), Actin (Sigma), ACC (cell signalling), ACC pSer79 (cell signalling), phospho-S6 ribosomal protein pSer241/244 (cell signalling), p70S6 Kinase (cell signalling), p70S6K pThr421/pSer424 (cell signalling), mTOR (cell signalling), AMPK (cell signallling, AMPK pThr172 (cell singnaling), HRP-anti-rabbit (Amersham), HRP-anti-mouse (Dianova). The resulting bands were quantified using Imagequant5.2. Statistical analyses were performed using SigmaStat software package (v 3.0, SPSS, USA). For timecourse or dose-response studies, data were analyses by one-way ANOVA with post hoc Dunnett's or Bonferonni test to accommodate for multiple comparisons. A Student's t-test was used for two-group comparisons, as appropriate.

[3] = target: T1, purified PP2Ac (catalytic subunit of PP2A) (Homo sapiens, UniProt P67775); test: PP2A activity assay (malachite green), purified PP2Ac; assay type: biochemical; settings: 10 nM okadaic acid, 1 hour
T1 construct: purchased upstate
T1 sequence (P67775 whole entry): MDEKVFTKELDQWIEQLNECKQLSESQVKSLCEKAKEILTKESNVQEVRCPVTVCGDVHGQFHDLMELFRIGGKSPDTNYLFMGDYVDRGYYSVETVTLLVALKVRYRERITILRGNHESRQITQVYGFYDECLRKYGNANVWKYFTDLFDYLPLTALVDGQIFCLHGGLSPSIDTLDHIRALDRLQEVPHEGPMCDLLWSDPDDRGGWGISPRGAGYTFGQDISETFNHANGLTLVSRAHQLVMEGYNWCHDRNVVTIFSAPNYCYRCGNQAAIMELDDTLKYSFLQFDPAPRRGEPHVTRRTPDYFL
Experimental: as §1

[4] = test system: ACC; test: Phosphorylation of the AMPK target ACC (Ser79) in primary cortical neurons; assay type: cell-based, mouse; settings: 0.25 mM phenformin, increasing time intervals
Experimental: as §2
as §3, with “3 groups of 2 mice were treated with or without 5 mg/l metformin in the drinking water.” left out
as §4, with “Proteins were resolved on 8 or 10% SDS gels and blotted onto PVDF-membranes (Roche).” left out, “Statistical analyses were performed using SigmaStat software package (v 3.0, SPSS, USA). For timecourse or dose-response studies, data were analyses by one-way ANOVA with post hoc Dunnett's or Bonferonni test to accommodate for multiple comparisons. A Student's t-test was used for two-group comparisons, as appropriate.” left out

[5] = test system: p70S6kinase; test: Phosphorylation of p70S6kinase in primary cortical neurons; assay type: cell-based, mouse; settings: 0.25 mM phenformin over increasing time intervals
Experimental: as §2, §3, §4

[6] = increasing concentrations of okadaic acid (1 nM to 10 nM), four hours

| Structure (SMILES) | activity of the immunopurified PP2A protein complex [1] | phosphorylation of Ser202 ([2]; 10 nM okadaic acid alone, 4 hours) | phosphorylation of Ser202 relative to total tau [2, 6] | phosphorylation of Ser262 relative to total tau [2, 6] | phosphorylation of Ser356 relative to total tau [2, 6] | phosphorylation of Ser396 relative to total tau [2, 6] | PP2A activity of purified PP2Ac [3] | ACC phosphorylation (Ser79) [4] | de-phosphorylation of tau at PP2A sensitive sites [2] | de-phosphorylation of tau at PP2A sensitive sites ([2]; listed as Phenformin) | effect on Ser202 phosphorylation with and without okadaic acid pre-treatment ([2]; okadaic acid 10 nM prior to phenformin 0.25 mM, 4 hours) | phosphorylation status of p70S6kinase [5] | phosphorylation status of p70S6kinase ([5]; listed as Phenformin) |
| --- | --- | --- | --- | --- | --- | --- | --- | --- | --- | --- | --- | --- | --- |
| C=C1[C@@H](O)[C@@H]2O[C@]3(CC[C@H](/C=C/[C@@H](C)[C@@H]4CC(C)=C[C@@]5(O[C@H](C[C@@](C)(O)C(=O)O)CC[C@H]5O)O4)O3)CC[C@H]2O[C@@H]1[C@@H](O)C[C@H](C)[C@H]1O[C@@]2(CCCCO2)CC[C@H]1C [okadaic acid] | reduced | increased | increased with the concentration of OA | increased with the concentration of OA | increased with the concentration of OA | did not increase significantly | reduced | – | – | – | – | – | – |
| [H]/N=C(/N)N/C(=N/[H])NCCc1ccccc1 [phenformin, Phenformin] | – | – | – | – | – | – | – | neither metformin (FIG. 4a) nor phenformin (FIG. 12) had an effect | Comparable results | induces de-phosphorylation | inhibition of PP2A blocks the Phenformin effect | promoted de-phosphorylation | decrease of pS6kinase phosphorylation |

Source: patent publication US20120184624A1, “Treatment of Alzheimer's Disease” (priority 2010, published 2012)
